Source: PubChem BioAssay AID2060887 (Molecular Pharmacology Branch, DTP, NCI, 2025)

Test system: 782815-120-R-J1-PDC complex spheroid viability
Test: Anticancer human tumor 782815-120-R-J1-PDC patient-derived colon adenocarcinoma cell line growth inhibition [RAS]
Conditions: for IC50: curve of first compound; for viability, T/C: stronger effect = lower value
Summary of the method: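 Multi-cell-type spheroids: tumor cells plus HUVEC endothelial cells and mesenchymal stem cells. RAS-pathway inhibitors were combined with targeted agents, each dosed in half-log steps down from clinical Cmax, or from 10 microM when Cmax was unknown.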

[1] = second compound 0.000949 µM, first compound 0.00316 µM
[2] = second compound 0.000949 µM, first compound 0.01 µM
[3] = second compound 0.000949 µM, first compound 0.0316 µM
[4] = second compound 0.000949 µM, first compound 0.1 µM
[5] = second compound 0.000949 µM, first compound 0.316 µM
[6] = second compound 0.000949 µM, first compound 1 µM
[7] = second compound 0.003 µM, first compound 0.00316 µM
[8] = second compound 0.003 µM, first compound 0.01 µM
[9] = second compound 0.003 µM, first compound 0.0316 µM
[10] = second compound 0.003 µM, first compound 0.1 µM
[11] = second compound 0.003 µM, first compound 0.316 µM
[12] = second compound 0.003 µM, first compound 1 µM
[13] = second compound 0.00949 µM, first compound 0.00316 µM
[14] = second compound 0.00949 µM, first compound 0.01 µM
[15] = second compound 0.00949 µM, first compound 0.0316 µM
[16] = second compound 0.00949 µM, first compound 0.1 µM
[17] = second compound 0.00949 µM, first compound 0.316 µM
[18] = second compound 0.00949 µM, first compound 1 µM
[19] = second compound 0.03 µM, first compound 0.00316 µM
[20] = second compound 0.03 µM, first compound 0.01 µM
[21] = second compound 0.03 µM, first compound 0.0316 µM
[22] = second compound 0.03 µM, first compound 0.1 µM
[23] = second compound 0.03 µM, first compound 0.316 µM
[24] = second compound 0.03 µM, first compound 1 µM
[25] = second compound 0.0949 µM, first compound 0.00316 µM
[26] = second compound 0.0949 µM, first compound 0.01 µM
[27] = second compound 0.0949 µM, first compound 0.0316 µM
[28] = second compound 0.0949 µM, first compound 0.1 µM
[29] = second compound 0.0949 µM, first compound 0.316 µM
[30] = second compound 0.0949 µM, first compound 1 µM
[31] = second compound 0.3 µM, first compound 0.00316 µM
[32] = second compound 0.3 µM, first compound 0.01 µM
[33] = second compound 0.3 µM, first compound 0.0316 µM
[34] = second compound 0.3 µM, first compound 0.1 µM
[35] = second compound 0.3 µM, first compound 0.316 µM
[36] = second compound 0.3 µM, first compound 1 µM
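Further: spheroids exposed to compounds for 7 days before reading.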
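Wherever viability, T/C is given: 100% = DMSO vehicle control viability.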

With `CCN1CCN(Cc2ccc(Nc3ncc(F)c(-c4cc(F)c5nc(C)n(C(C)C)c5c4)n3)nc2)CC1` + CCn1c(-c2cc(N3CCN(C)CC3)cnc2C(C)OC)c2c3cc(ccc31)-c1csc(n1)CC(NC(=O)C1CC1C)C(=O)N1CCCC(N1)C(=O)OCC(C)(C)C2 the IC50 (second compound 0.000949 µM) was over 1000 nM, the IC50 (second compound 0.003 µM) was over 1000 nM and the IC50 (second compound 0.00949 µM) was under 3.16 nM. For the same compound, the IC50 (second compound 0.03 µM) was under 3.16 nM, the IC50 (second compound 0.0949 µM) was under 3.16 nM and the IC50 (second compound 0.3 µM) was under 3.16 nM. The viability, T/C [1] was 75.8%, the viability, T/C [2] was 88% and the viability, T/C [3] was 92.3%. It also gave a viability, T/C [4] of 84.9%, a viability, T/C [5] of 94.6% and a viability, T/C [6] of 114%. It also gave a viability, T/C [7] of 58.6%, a viability, T/C [8] of 59.5% and a viability, T/C [9] of 57.9%. It also gave a viability, T/C [10] of 59.7%, a viability, T/C [11] of 62.6% and a viability, T/C [12] of 64%. For the same compound, the viability, T/C [13] was 34.3%, the viability, T/C [14] was 36.4% and the viability, T/C [15] was 34.4%. For the same compound, the viability, T/C [16] was 39.4%, the viability, T/C [17] was 34.8% and the viability, T/C [18] was 32.5%. The viability, T/C [19] was 20.2%, the viability, T/C [20] was 21.9% and the viability, T/C [21] was 18.5%. It also gave a viability, T/C [22] of 18%, a viability, T/C [23] of 20.3% and a viability, T/C [24] of 20.8%. The viability, T/C [25] was 15.2%, the viability, T/C [26] was 15.7% and the viability, T/C [27] was 14.5%. The viability, T/C [28] was 17%, the viability, T/C [29] was 19.3% and the viability, T/C [30] was 17.1%. The viability, T/C [31] was 15.6%, the viability, T/C [32] was 14.8% and the viability, T/C [33] was 13.6%. It also gave a viability, T/C [34] of 13.3%, a viability, T/C [35] of 13.2% and a viability, T/C [36] of 18.2%.
For `Nc1ccn(C2OC(CO)C(O)C2(F)F)c(=O)n1` (centres undefined) + CCn1c(-c2cc(N3CCN(C)CC3)cnc2C(C)OC)c2c3cc(ccc31)-c1csc(n1)CC(NC(=O)C1CC1C)C(=O)N1CCCC(N1)C(=O)OCC(C)(C)C2, the IC50 (second compound 0.000949 µM) was 20.7 nM, the IC50 (second compound 0.003 µM) was 12.7 nM and the IC50 (second compound 0.00949 µM) was under 3.16 nM. The IC50 (second compound 0.03 µM) was under 3.16 nM, the IC50 (second compound 0.0949 µM) was under 3.16 nM and the IC50 (second compound 0.3 µM) was under 3.16 nM. It also gave a viability, T/C [1] of 74%, a viability, T/C [2] of 53.4% and a viability, T/C [3] of 48.6%. It also gave a viability, T/C [4] of 35.9%, a viability, T/C [5] of 28.4% and a viability, T/C [6] of 23.6%. It also gave a viability, T/C [7] of 60.9%, a viability, T/C [8] of 51.7% and a viability, T/C [9] of 40%. The viability, T/C [10] was 25%, the viability, T/C [11] was 25.5% and the viability, T/C [12] was 23.7%. It also gave a viability, T/C [13] of 30.8%, a viability, T/C [14] of 33.3% and a viability, T/C [15] of 23.1%. For the same compound, the viability, T/C [16] was 23%, the viability, T/C [17] was 17.1% and the viability, T/C [18] was 18%. The viability, T/C [19] was 20.1%, the viability, T/C [20] was 21.2% and the viability, T/C [21] was 15.7%. For the same compound, the viability, T/C [22] was 13.3%, the viability, T/C [23] was 13.7% and the viability, T/C [24] was 14.1%. The viability, T/C [25] was 15.7%, the viability, T/C [26] was 15.9% and the viability, T/C [27] was 13.3%. It also gave a viability, T/C [28] of 11.6%, a viability, T/C [29] of 13.2% and a viability, T/C [30] of 10.7%. For the same compound, the viability, T/C [31] was 15.7%, the viability, T/C [32] was 16.1% and the viability, T/C [33] was 16.1%. It also gave a viability, T/C [34] of 13.2%, a viability, T/C [35] of 12.6% and a viability, T/C [36] of 10.2%.
